Experimental data published in US4389414A, “Prostaglandin compositions” (Syntex (U.S.A.) Inc., priority 1981, dated 1983).
Where “and” joins values, the source holds several entries; their conditions need not be identical. Equal entries are not always repeated.

Assay: Absorption rate of carbon-14 Compound A from different vehicles after SQ or IM injection (Example 2, Table I)
Assay type: in vivo, rats
Conditions: for Relative Percent Absorption: compared to aqueous buffer over 6 hours
Description: A series of experiments was carried out to determine the absorption rate of a compound which are useful in the composition of this invention as compared to other compositions which are not included within the scope of the claims of the invention. In each experiment 56 rats were used. Two groups of 27 rats are required for the test formulations and the two remaining rats are used to obtain blank plasma samples. […] Each composition is prepared by dissolving 2.7 milligrams of the compound in 10 milliliters of the solvent. This represents approximately 5 microcuries of carbon 14 and 41 micrograms of dl-9α,11α,15α-trihydroxy-16-phenoxy-17,18,19,20-tetranorprosta-4,5,13-trans-trienoic acid (Compound A). Blood samples from each of three rats from each group are obtained by […] at the following time points after injection: 15 minutes, 30 minutes, 45 minutes, 60 minutes, 2 hours, 3 hours, 4 hours, 5 hours and 6 hours. The two untreated rats are sampled to obtain blank plasma sample.
*Compared to aqueous buffer over 6 hours.

[1] = vehicle 90% Glycerin H2O, SQ, .15 ml, 5 μCi
[2] = vehicle Aq. Buffer, IM, .15 ml, 5 μCi
[3] = vehicle Aq. Buffer, SQ, .15 ml, 5 μCi
[4] = vehicle Glycerin, SQ, .15 ml, 5 μCi
[5] = vehicle PEG 400, IM, .15 ml, 5 μCi
[6] = vehicle PEG 400, SQ, .15 ml, 5 μCi
[7] = vehicle PEG 400, SQ, .30 ml, 10 μCi

Absorption Rate Constant Ka [1]: 6.5 hr^1
Relative Percent Absorption [1]: 51.5%
Absorption Rate Constant Ka [2]: 10.14 hr^1
Relative Percent Absorption [2]: 100%
Absorption Rate Constant Ka [3]: 10.14 hr^1
Relative Percent Absorption [3]: 60.9%
Absorption Rate Constant Ka [4]: 5.0 hr^1
Relative Percent Absorption [4]: 50.4%
Absorption Rate Constant Ka [5]: 3.7 hr^1
Relative Percent Absorption [5]: 35.5%
Absorption Rate Constant Ka [6]: 3.7 hr^1
Relative Percent Absorption [6]: 27.6% and 31.4%
Absorption Rate Constant Ka [7]: 3.7 hr^1
Relative Percent Absorption [7]: 26.2%
SMILES: O=C(O)CCC=C=CC[C@@H]1[C@@H](/C=C/[C@@H](O)COc2ccccc2)[C@H](O)C[C@@H]1O (relative stereo) [Compound A, dl-9α,11α,15α-trihydroxy-16-phenoxy-17,18,19,20-tetranorprosta-4,5,13-trans-trienoic acid]
